# Paper PMC3596500 (Pharmaceutical research, 2012)
# Entries after “also recorded” stand apart in the source; their conditions may differ. Like-named read-outs stand apart in the source and are kept apart here. Square brackets hold non-standard residues; d marks the D form. Peptide text beside a SMILES is read from it. Sar = CNCC(=O)O
# Legend:
# PepT1 [1] = biological target: T1, PepT1 (Mus musculus, UniProt Q9JIP7); assay: Co-perfusion of cefadroxil with dimethyl-amiloride; conditions: 0.1 mM DMA co-perfused with 10 μM cefadroxil, pH 6.5, wild-type mice
# T1 sequence (Q9JIP7 1-709): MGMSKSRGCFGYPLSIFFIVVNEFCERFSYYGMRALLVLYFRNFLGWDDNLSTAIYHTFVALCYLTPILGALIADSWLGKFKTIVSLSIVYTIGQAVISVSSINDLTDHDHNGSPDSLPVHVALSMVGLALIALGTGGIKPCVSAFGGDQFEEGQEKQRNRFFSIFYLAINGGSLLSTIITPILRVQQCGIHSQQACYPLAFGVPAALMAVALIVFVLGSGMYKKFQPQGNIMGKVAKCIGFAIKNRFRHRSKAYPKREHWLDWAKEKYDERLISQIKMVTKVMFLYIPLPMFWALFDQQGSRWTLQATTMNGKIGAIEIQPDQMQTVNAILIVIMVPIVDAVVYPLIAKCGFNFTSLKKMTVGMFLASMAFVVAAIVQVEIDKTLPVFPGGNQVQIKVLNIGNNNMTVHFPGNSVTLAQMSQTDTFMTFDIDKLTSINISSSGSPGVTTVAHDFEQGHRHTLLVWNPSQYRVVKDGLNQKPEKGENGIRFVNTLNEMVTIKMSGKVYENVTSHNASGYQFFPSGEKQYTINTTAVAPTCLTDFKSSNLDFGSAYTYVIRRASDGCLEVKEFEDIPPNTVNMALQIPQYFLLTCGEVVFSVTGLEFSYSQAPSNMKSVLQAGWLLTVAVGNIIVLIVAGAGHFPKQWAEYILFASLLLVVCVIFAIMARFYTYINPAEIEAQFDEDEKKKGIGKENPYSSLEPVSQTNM
# PepT1 [2] = biological target: T1, PepT1; conditions: 25 mM inhibitor co-perfused with 10 μM cefadroxil, pH 6.5, wild-type mice
# [3] = after oral dipeptide administration; cited from earlier work
# PepT1 [4] = conditions: cited from earlier work
# PepT1 [5] = conditions: PepT1 cRNA-injected Xenopus oocytes; cited from earlier work
# PepT1 [6] = biological target: T1, PepT1; format: in vivo, mice; conditions: wild-type mice, 10 μM cefadroxil, pH 6.5
# PepT1 [7] = format: in vivo, mice; conditions: for Peff: 10 μM cefadroxil, pH 6.5
# PepT1 [8] = biological target: T1, PepT1; assay: pH-dependent jejunal permeability of cefadroxil, in situ perfusion; format: in vivo; conditions: 10 μM cefadroxil, jejunum, wild-type mice, pH 5.5 to 7.5
# [9] = mouse, in vivo, po
# [10] = in situ perfusions in proximal small intestine, cited from earlier work
# [11] = cited from earlier work
# Caco-2 cells = conditions: cited from earlier work
# [12] = cited from earlier work; remark: listed apart in the source
# PepT1 [13] = biological target: T1, PepT1; conditions: jejunum, wild-type mice, pH 6.5
smiles,measurement,setting,value
"CN(C)c1nc(N)c(C(=O)NC(=N)N)nc1Cl [DMA, 5-(N,N-dimethyl)amiloride]",effect on PepT1-mediated jejunal permeability/uptake of cefadroxil,PepT1 [1],inhibited
same,reduction of cefadroxil permeability,PepT1 [1],about 60%
"NCC(=O)O [Gly, glycine]",effect on jejunal effective permeability of cefadroxil,PepT1 [2],no significant effect
"NCC(=O)N1CCC[C@H]1C(=O)O [GlyPro, glycylproline] (H-Gly-Pro-OH)",effect on jejunal effective permeability of cefadroxil,PepT1 [2],significantly decreased
"CN(CC(=O)O)C(=O)CN [GlySar, glycylsarcosine] (H-Gly-[Sar]-OH)",reduction (systemic exposure) in PepT1 knockout vs. wild-type mice,[3],~2 fold
same,effect on jejunal effective permeability of cefadroxil,PepT1 [2],significantly decreased
same,increase of permeability,"PepT1 [4]; pH 5.5, in situ perfusion, mice",36%
"N[C@@H](Cc1c[nH]cn1)C(=O)O [L-His, L-histidine]",effect on jejunal effective permeability of cefadroxil,PepT1 [2],no significant effect
"CNC(=O)c1cccnc1 [NMN, N-methylnicotinamide]",effect on jejunal effective permeability of cefadroxil,PepT1 [2],no significant effect
CC[N+](CC)(CC)CC [TEA],effect on jejunal effective permeability of cefadroxil,PepT1 [2],lack of effect
CC1=C(C(=O)O)N2C(=O)[C@@H](NC(=O)[C@H](N)c3ccc(O)cc3)[C@H]2SC1 [cefadroxil],Michaelis constant,PepT1 [5],1.1 mM
same,Peff,PepT1 [6]; duodenum,49 ×10⁻⁶ cm/s
same,Peff,PepT1 [6]; ileum,88 ×10⁻⁶ cm/s
same,Peff,PepT1 [6]; jejunum,80 ×10⁻⁶ cm/s
same,Peff,"PepT1 [7]; PepT1 knockout mice, colon",3.2 ×10⁻⁶ cm/s
same,Peff,"PepT1 [7]; PepT1 knockout mice, ileum",4.2 ×10⁻⁶ cm/s
same,Peff,"PepT1 [7]; PepT1 knockout mice, jejunum",9 ×10⁻⁶ cm/s
same,difference between genotypes in the permeability in colon,"PepT1 [7]; colon, wild-type vs PepT1 knockout",no significant difference
same,permeability in PepT1 knockout mice as compared to wild-type mice,PepT1 [7]; duodenum,4%
same,permeability in PepT1 knockout mice as compared to wild-type mice,PepT1 [7]; ileum,5%
same,permeability in PepT1 knockout mice as compared to wild-type mice,PepT1 [7]; jejunum,12%
same,Peff,"PepT1 [7]; wild-type mice, colon",6.4 ×10⁻⁶ cm/s
same,effect of perfusate pH on effective permeability,PepT1 [8],no significant differences; also recorded: not significantly affected
same,"Tmax increase, PepT1 knockout vs wild-type",[9],~4 fold
same,Michaelis constant,[10]; ref 12,5.9 mM
same,Michaelis constant,[10]; ref 13,6.6 mM
same,half-life,[11],~ 95 min
same,decrease of uptake,Caco-2 cells; further reducing the pH to 5.5,50%
same,increase of drug uptake,Caco-2 cells; shifting the pH from 7.4 to 6.0,about 4 fold
same,binding to plasma proteins,[12],about 20%
same,K′m (apparent),PepT1 [13]; based on bulk fluid (inlet) concentrations,3.8 ± 1.2 mM
same,Vmax (intrinsic),PepT1 [13]; referenced to membrane surface concentration Cw,4.5 ± 0.3 nmol/cm^2/sec
same,effect on jejunal permeability of GlySar,"PepT1 [4]; co-perfusion of cefadroxil at saturating concentrations, wild-type mice",significantly reduced
CC(=O)OCC1=C(C(=O)O)N2C(=O)[C@@H](NC(=O)Cc3cccs3)[C@H]2SC1 [cephalothin],effect on jejunal effective permeability of cefadroxil,PepT1 [2],not affected; also recorded: no significant effect; also recorded: lack of effect
